Tests used:
Assay in all cases: relative viability (nuclei count vs DMSO), 5 days (fraction); higher = more cells survive
Silmitasertib = compound: O=C(O)c1ccc2c(c1)nc(Nc1cccc(Cl)c1)c1ccncc12 [Silmitasertib]
In short: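 After an overnight hold at 37 °C, lung cancer cell lines in 1536-well plates were pinned with five library-drug doses (not always all listed), each √10 from the next, on vehicle-anchored plates. The cells stayed 5 days without fresh medium, then a one-step fix, permeabilisation and Hoechst stain preceded 4× imaging and MetaXpress nuclear counts. A plate passed only with control CV under 25% and at least one doubling. Viability is the median, over plates, of treated-well nuclei relative to vehicle-well nuclei.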

[1] = compound: O=C(O)c1ccc2c(c1)nc(Nc1cccc(Cl)c1)c1ccncc12 [Silmitasertib] + N=C(N)NC(=N)NCCc1ccccc1 [Phenformin] (partner 250 µM)
In short: (§1)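 Medians of duplicate plates are given as relative viability. That measure is the nuclei count in treated wells divided by the count in vehicle wells. Counts were taken on 4× images of lung cancer cell lines in 1536-well plates, 5 days after pin-tool dosing the day after seeding with one drug alone or a fixed anchor-drug dose plus five library-drug doses (not always all listed) in √10 steps.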

[2] = compound: O=C(O)c1ccc2c(c1)nc(Nc1cccc(Cl)c1)c1ccncc12 [Silmitasertib] + C[C@@H](Oc1cc(-c2cnn(C3CCNCC3)c2)cnc1N)c1c(Cl)ccc(F)c1Cl [Crizotinib] (partner 1 µM)
In short: as §1

[3] = compound: O=C(O)c1ccc2c(c1)nc(Nc1cccc(Cl)c1)c1ccncc12 [Silmitasertib] + C[C@]1(O)C[C@@H](c2nc(-c3ccc4ccc(-c5ccccc5)nc4c3)c3c(N)nccn32)C1 [Linsitinib] (partner 1 µM)
In short: as §1

[4] = compound: O=C(O)c1ccc2c(c1)nc(Nc1cccc(Cl)c1)c1ccncc12 [Silmitasertib] + COc1cc2c(Oc3ccc(NC(=O)C4(C(=O)Nc5ccc(F)cc5)CC4)cc3F)ccnc2cc1OCCCN1CCOCC1 [Foretinib] (partner 0.25 µM)
In short: as §1

Cell Line | relative viability (Silmitasertib; 0.04 µM) | relative viability (Silmitasertib; 0.4 µM) | relative viability (Silmitasertib; 1.265 µM) | relative viability (Silmitasertib; 4 µM) | relative viability ([1]; first compound 0.04 µM) | relative viability ([1]; first compound 0.4 µM) | relative viability ([1]; first compound 1.265 µM) | relative viability ([1]; first compound 4 µM) | relative viability ([2]; first compound 0.04 µM) | relative viability ([2]; first compound 0.4 µM) | relative viability ([2]; first compound 1.265 µM) | relative viability ([2]; first compound 4 µM) | relative viability ([3]; first compound 0.04 µM) | relative viability ([3]; first compound 0.4 µM) | relative viability ([3]; first compound 1.265 µM) | relative viability ([3]; first compound 4 µM) | relative viability ([4]; first compound 0.04 µM) | relative viability ([4]; first compound 0.4 µM) | relative viability ([4]; first compound 1.265 µM) | relative viability ([4]; first compound 4 µM)
SK-MES-1 | 1.04 | 0.989 | 0.855 | 0.491 | 0.752 | 0.582 | 0.434 | 0.27 | 1.1 | 1.05 | 1.06 | 0.656 | 1.18 | 1.13 | 1.11 | 1.09 | 1.12 | 0.885 | 0.946 | 0.535
NCI-H23 | 1.07 | 0.395 | 0.747 | 0.372 | 0.639 |  | 0.675 | 0.403 | 0.51 |  | 0.384 | 0.362 | 0.662 |  | 0.448 | 0.582 | 0.97 |  | 0.65 | 0.735
HCC-827 | 1.09 |  | 1.14 | 0.996 | 0.436 |  | 0.413 | 0.376 | 0.993 |  | 0.952 | 1.01 | 0.967 |  | 1.18 | 1.18 | 1.09 |  | 1.06 | 1.2
HCC-78 | 1.05 | 0.697 | 0.654 | 0.764 | 0.678 | 0.517 | 0.707 | 0.594 | 0.379 | 0.31 | 0.298 | 0.323 | 0.723 | 0.469 | 0.375 | 0.481 | 0.503 | 0.523 | 0.457 | 0.621
UMC-11 | 1.11 | 0.916 | 0.985 | 0.684 | 0.336 | 0.319 | 0.341 | 0.286 | 0.604 | 0.683 | 0.56 | 0.324 | 1.04 | 1.08 | 1.1 | 0.678 | 1.19 | 1.16 | 1.11 | 0.619
NCI-H1975 | 1.18 |  | 0.904 | 0.917 | 0.443 |  | 0.382 | 0.394 | 0.954 | 0.795 | 0.929 | 0.816 | 1.07 | 0.842 | 0.878 | 0.686 | 0.883 |  | 0.802 | 0.83
NCI-H1563 | 0.989 | 1.03 | 0.887 | 0.903 | 0.711 | 0.714 | 0.655 | 0.627 | 0.88 | 0.822 | 0.856 | 0.857 | 1.32 | 1.22 | 1.17 | 1.16 | 0.96 | 0.952 | 0.879 | 0.974
COR-L23 | 1.07 | 0.782 | 1.09 | 0.831 | 0.51 | 0.372 | 0.483 | 0.314 | 0.665 | 0.67 | 0.727 | 0.629 | 1.02 | 0.843 | 0.821 | 0.638 | 1.09 | 0.794 | 0.951 | 1.16
CAL-12T | 1.15 | 0.892 | 0.842 | 0.472 | 0.67 | 0.488 | 0.352 | 0.296 | 0.685 | 0.423 | 0.542 | 0.318 | 0.93 | 0.826 | 0.652 | 0.475 | 1.12 | 1.02 | 1.06 | 0.478
SW 1573 | 1.19 | 0.955 | 0.876 | 0.779 | 0.465 | 0.319 | 0.336 | 0.387 | 0.952 | 0.707 | 0.734 | 0.625 | 0.805 | 0.679 | 0.855 | 0.682 | 0.882 | 0.801 | 0.744 | 0.202
NCI-H2126 | 0.996 | 0.824 | 0.939 | 0.81 | 0.494 | 0.515 | 0.494 | 0.462 | 1.02 | 0.996 | 0.99 | 1.12 | 0.722 | 0.737 | 0.626 | 0.585 | 1.21 |  | 1.03 | 1.07

— the supplement of paper PMC10307832
